Source: the NIST ThermoML archive (doi:10.1021/acs.jced.6b00657)

Experiment: xn = mol fraction of the nth substance listed
Conditions: Liquid, absorption in thin film, x2 = 0

In the case of `CCn1cc[n+](C)c1.N#C[C-](C#N)C#N` [1-ethyl-3-methyl-1H-imidazolium tricyanomethanide] + O=C=O, the binary diffusion coefficient (298.15 K, 96 kPa) is reported as 3.3e-10 m2/s, the binary diffusion coefficient (298.15 K, 194 kPa) is reported as 2.4e-10 m2/s and the binary diffusion coefficient (298.15 K, 294 kPa) is reported as 2.7e-10 m2/s. The binary diffusion coefficient (298.15 K, 393 kPa) was 2.6e-10 m2/s, the binary diffusion coefficient (298.15 K, 493 kPa) was 2.8e-10 m2/s and the binary diffusion coefficient (298.15 K, 793 kPa) was 3.6e-10 m2/s. The binary diffusion coefficient (298.15 K, 893 kPa) was 3.2e-10 m2/s, the binary diffusion coefficient (298.15 K, 993 kPa) was 3.2e-10 m2/s and the binary diffusion coefficient (298.15 K, 1293 kPa) was 3.9e-10 m2/s. For the same compound, the binary diffusion coefficient (298.15 K, 1393 kPa) was 3.8e-10 m2/s, the binary diffusion coefficient (298.15 K, 1493 kPa) was 4.1e-10 m2/s and the binary diffusion coefficient (298.15 K, 1793 kPa) was 4.4e-10 m2/s. It also gave a binary diffusion coefficient (298.15 K, 1893 kPa) of 4.1e-10 m2/s, a binary diffusion coefficient (298.15 K, 1992 kPa) of 4.2e-10 m2/s and a binary diffusion coefficient (308.15 K, 194 kPa) of 2.9e-10 m2/s. It also gave a binary diffusion coefficient (308.15 K, 293 kPa) of 3e-10 m2/s, a binary diffusion coefficient (308.15 K, 393 kPa) of 3e-10 m2/s and a binary diffusion coefficient (308.15 K, 493 kPa) of 3e-10 m2/s. For the same compound, the binary diffusion coefficient (308.15 K, 593 kPa) was 3.1e-10 m2/s, the binary diffusion coefficient (308.15 K, 693 kPa) was 3.3e-10 m2/s and the binary diffusion coefficient (308.15 K, 792 kPa) was 3.8e-10 m2/s. The binary diffusion coefficient (308.15 K, 893 kPa) was 3.6e-10 m2/s, the binary diffusion coefficient (308.15 K, 993 kPa) was 3.5e-10 m2/s and the binary diffusion coefficient (308.15 K, 1093 kPa) was 3.6e-10 m2/s. For the same compound, the binary diffusion coefficient (308.15 K, 1192 kPa) was 4.1e-10 m2/s, the binary diffusion coefficient (308.15 K, 1293 kPa) was 3.7e-10 m2/s and the binary diffusion coefficient (308.15 K, 1393 kPa) was 3.9e-10 m2/s. It also gave a binary diffusion coefficient (308.15 K, 1493 kPa) of 4.1e-10 m2/s, a binary diffusion coefficient (308.15 K, 1593 kPa) of 3.9e-10 m2/s and a binary diffusion coefficient (308.15 K, 1693 kPa) of 4.1e-10 m2/s. The binary diffusion coefficient (308.15 K, 1792 kPa) was 4.2e-10 m2/s, the binary diffusion coefficient (308.15 K, 1893 kPa) was 4.5e-10 m2/s and the binary diffusion coefficient (308.15 K, 1993 kPa) was 4.1e-10 m2/s. For the same compound, the binary diffusion coefficient (323.15 K, 194 kPa) was 4.4e-10 m2/s, the binary diffusion coefficient (323.15 K, 294 kPa) was 4.8e-10 m2/s and the binary diffusion coefficient (323.15 K, 394 kPa) was 4.4e-10 m2/s. For the same compound, the binary diffusion coefficient (323.15 K, 494 kPa) was 3.9e-10 m2/s, the binary diffusion coefficient (323.15 K, 593 kPa) was 4.1e-10 m2/s and the binary diffusion coefficient (323.15 K, 692 kPa) was 4.1e-10 m2/s. The binary diffusion coefficient (323.15 K, 793 kPa) was 4.4e-10 m2/s, the binary diffusion coefficient (323.15 K, 892 kPa) was 5e-10 m2/s and the binary diffusion coefficient (323.15 K, 993 kPa) was 4.4e-10 m2/s. For the same compound, the binary diffusion coefficient (323.15 K, 1093 kPa) was 4.2e-10 m2/s, the binary diffusion coefficient (323.15 K, 1193 kPa) was 5.3e-10 m2/s and the binary diffusion coefficient (323.15 K, 1392 kPa) was 4.6e-10 m2/s. The binary diffusion coefficient (323.15 K, 1492 kPa) was 4.2e-10 m2/s, the binary diffusion coefficient (323.15 K, 1593 kPa) was 4.2e-10 m2/s and the binary diffusion coefficient (323.15 K, 1693 kPa) was 4.2e-10 m2/s. It also gave a binary diffusion coefficient (323.15 K, 1793 kPa) of 5.9e-10 m2/s, a binary diffusion coefficient (323.15 K, 1993 kPa) of 4.9e-10 m2/s and a binary diffusion coefficient (338.25 K, 94 kPa) of 5.1e-10 m2/s. The binary diffusion coefficient (338.25 K, 194 kPa) was 5e-10 m2/s, the binary diffusion coefficient (338.25 K, 294 kPa) was 5.1e-10 m2/s and the binary diffusion coefficient (338.25 K, 394 kPa) was 4.9e-10 m2/s. The binary diffusion coefficient (338.25 K, 494 kPa) was 5.8e-10 m2/s, the binary diffusion coefficient (338.25 K, 594 kPa) was 4.5e-10 m2/s and the binary diffusion coefficient (338.25 K, 693 kPa) was 4.6e-10 m2/s. The binary diffusion coefficient (338.25 K, 793 kPa) was 5.6e-10 m2/s, the binary diffusion coefficient (338.25 K, 893 kPa) was 5.2e-10 m2/s and the binary diffusion coefficient (338.25 K, 1093 kPa) was 5.1e-10 m2/s. For the same compound, the binary diffusion coefficient (338.25 K, 1192 kPa) was 5.2e-10 m2/s, the binary diffusion coefficient (338.25 K, 1393 kPa) was 5.8e-10 m2/s and the binary diffusion coefficient (338.25 K, 1493 kPa) was 4.9e-10 m2/s. For the same compound, the binary diffusion coefficient (338.25 K, 1592 kPa) was 5.1e-10 m2/s, the binary diffusion coefficient (338.25 K, 1693 kPa) was 4.6e-10 m2/s and the binary diffusion coefficient (338.25 K, 1792 kPa) was 5.2e-10 m2/s. It also gave a binary diffusion coefficient (338.25 K, 1993 kPa) of 5.4e-10 m2/s, a binary diffusion coefficient (353.25 K, 95 kPa) of 6.1e-10 m2/s and a binary diffusion coefficient (353.25 K, 294 kPa) of 9e-10 m2/s. The binary diffusion coefficient (353.25 K, 494 kPa) was 7.4e-10 m2/s, the binary diffusion coefficient (353.25 K, 594 kPa) was 6.6e-10 m2/s and the binary diffusion coefficient (353.25 K, 694 kPa) was 6.6e-10 m2/s. It also gave a binary diffusion coefficient (353.25 K, 794 kPa) of 6.8e-10 m2/s, a binary diffusion coefficient (353.25 K, 894 kPa) of 7.8e-10 m2/s and a binary diffusion coefficient (353.25 K, 994 kPa) of 6.7e-10 m2/s. For the same compound, the binary diffusion coefficient (353.25 K, 1093 kPa) was 6.8e-10 m2/s, the binary diffusion coefficient (353.25 K, 1192 kPa) was 7e-10 m2/s and the binary diffusion coefficient (353.25 K, 1593 kPa) was 7.5e-10 m2/s. For the same compound, the binary diffusion coefficient (353.25 K, 1693 kPa) was 8.2e-10 m2/s, the binary diffusion coefficient (353.25 K, 1893 kPa) was 7.4e-10 m2/s and the binary diffusion coefficient (353.25 K, 1993 kPa) was 7.8e-10 m2/s.
For `CCCCCCCn1cc[n+](C)c1.N#C[C-](C#N)C#N` [1-heptyl-3-methylimidazolium tricyanomethanide] + O=C=O, the binary diffusion coefficient (298.15 K, 93 kPa) was 2e-10 m2/s, the binary diffusion coefficient (298.15 K, 193 kPa) was 1.6e-10 m2/s and the binary diffusion coefficient (298.15 K, 293 kPa) was 1.7e-10 m2/s. It also gave a binary diffusion coefficient (298.15 K, 393 kPa) of 1.9e-10 m2/s, a binary diffusion coefficient (298.15 K, 492 kPa) of 2e-10 m2/s and a binary diffusion coefficient (298.15 K, 692 kPa) of 2.3e-10 m2/s. For the same compound, the binary diffusion coefficient (298.15 K, 792 kPa) was 2.4e-10 m2/s, the binary diffusion coefficient (298.15 K, 893 kPa) was 2.5e-10 m2/s and the binary diffusion coefficient (298.15 K, 993 kPa) was 2.7e-10 m2/s. The binary diffusion coefficient (298.15 K, 1193 kPa) was 3.1e-10 m2/s, the binary diffusion coefficient (298.15 K, 1293 kPa) was 2.9e-10 m2/s and the binary diffusion coefficient (298.15 K, 1392 kPa) was 2.9e-10 m2/s. The binary diffusion coefficient (298.15 K, 1493 kPa) was 3.1e-10 m2/s, the binary diffusion coefficient (298.15 K, 1693 kPa) was 2.8e-10 m2/s and the binary diffusion coefficient (298.15 K, 1792 kPa) was 3.1e-10 m2/s. For the same compound, the binary diffusion coefficient (298.15 K, 1893 kPa) was 3.6e-10 m2/s, the binary diffusion coefficient (298.15 K, 1993 kPa) was 3.5e-10 m2/s and the binary diffusion coefficient (308.15 K, 94 kPa) was 2.6e-10 m2/s. For the same compound, the binary diffusion coefficient (308.15 K, 194 kPa) was 2.3e-10 m2/s, the binary diffusion coefficient (308.15 K, 294 kPa) was 2.4e-10 m2/s and the binary diffusion coefficient (308.15 K, 394 kPa) was 2.8e-10 m2/s. For the same compound, the binary diffusion coefficient (308.15 K, 493 kPa) was 2.8e-10 m2/s, the binary diffusion coefficient (308.15 K, 593 kPa) was 2.9e-10 m2/s and the binary diffusion coefficient (308.15 K, 693 kPa) was 2.7e-10 m2/s. For the same compound, the binary diffusion coefficient (308.15 K, 993 kPa) was 3e-10 m2/s, the binary diffusion coefficient (308.15 K, 1093 kPa) was 3.2e-10 m2/s and the binary diffusion coefficient (308.15 K, 1192 kPa) was 3.4e-10 m2/s. The binary diffusion coefficient (308.15 K, 1293 kPa) was 3.3e-10 m2/s, the binary diffusion coefficient (308.15 K, 1392 kPa) was 3.5e-10 m2/s and the binary diffusion coefficient (308.15 K, 1493 kPa) was 3.6e-10 m2/s. For the same compound, the binary diffusion coefficient (308.15 K, 1893 kPa) was 3.9e-10 m2/s, the binary diffusion coefficient (308.15 K, 1993 kPa) was 4.2e-10 m2/s and the binary diffusion coefficient (323.15 K, 95 kPa) was 3.2e-10 m2/s. The binary diffusion coefficient (323.15 K, 195 kPa) was 4e-10 m2/s, the binary diffusion coefficient (323.15 K, 294 kPa) was 3.8e-10 m2/s and the binary diffusion coefficient (323.15 K, 394 kPa) was 3.5e-10 m2/s. The binary diffusion coefficient (323.15 K, 494 kPa) was 3.8e-10 m2/s, the binary diffusion coefficient (323.15 K, 594 kPa) was 3.9e-10 m2/s and the binary diffusion coefficient (323.15 K, 692 kPa) was 3.2e-10 m2/s. It also gave a binary diffusion coefficient (323.15 K, 793 kPa) of 4e-10 m2/s, a binary diffusion coefficient (323.15 K, 893 kPa) of 3.5e-10 m2/s and a binary diffusion coefficient (323.15 K, 993 kPa) of 4.4e-10 m2/s. It also gave a binary diffusion coefficient (323.15 K, 1093 kPa) of 4.2e-10 m2/s, a binary diffusion coefficient (323.15 K, 1192 kPa) of 4.4e-10 m2/s and a binary diffusion coefficient (323.15 K, 1293 kPa) of 3.2e-10 m2/s. It also gave a binary diffusion coefficient (338.25 K, 95 kPa) of 4.5e-10 m2/s, a binary diffusion coefficient (338.25 K, 196 kPa) of 4.4e-10 m2/s and a binary diffusion coefficient (338.25 K, 295 kPa) of 4.3e-10 m2/s. For the same compound, the binary diffusion coefficient (338.25 K, 394 kPa) was 5.3e-10 m2/s, the binary diffusion coefficient (338.25 K, 493 kPa) was 4.7e-10 m2/s and the binary diffusion coefficient (338.25 K, 594 kPa) was 5.2e-10 m2/s. The binary diffusion coefficient (338.25 K, 793 kPa) was 6.1e-10 m2/s, the binary diffusion coefficient (338.25 K, 993 kPa) was 5.8e-10 m2/s and the binary diffusion coefficient (338.25 K, 1093 kPa) was 5.6e-10 m2/s. It also gave a binary diffusion coefficient (338.25 K, 1292 kPa) of 6.5e-10 m2/s, a binary diffusion coefficient (338.25 K, 1392 kPa) of 5.6e-10 m2/s and a binary diffusion coefficient (338.25 K, 1793 kPa) of 5.8e-10 m2/s. The binary diffusion coefficient (338.25 K, 1893 kPa) was 5.6e-10 m2/s, the binary diffusion coefficient (338.25 K, 1993 kPa) was 6.5e-10 m2/s and the binary diffusion coefficient (353.25 K, 494 kPa) was 6.4e-10 m2/s. For the same compound, the binary diffusion coefficient (353.25 K, 594 kPa) was 6.5e-10 m2/s, the binary diffusion coefficient (353.25 K, 693 kPa) was 5.4e-10 m2/s and the binary diffusion coefficient (353.25 K, 793 kPa) was 6e-10 m2/s. The binary diffusion coefficient (353.25 K, 894 kPa) was 6.6e-10 m2/s, the binary diffusion coefficient (353.25 K, 994 kPa) was 7.5e-10 m2/s and the binary diffusion coefficient (353.25 K, 1094 kPa) was 5.7e-10 m2/s. For the same compound, the binary diffusion coefficient (353.25 K, 1193 kPa) was 7.1e-10 m2/s.
